Laboratory results taken from ChEMBL document CHEMBL1150175, “Studies on the activities of tannins and related compounds, X. Effects of caffeetannins and related compounds on arachidonate metabolism in human polymorphonuclear leukocytes” (J Nat Prod, 1987).
The source made the active and inactive calls. The rule behind the calls is not given here.

Key:
[1] = Formation of PGE2 in A-23187-stimulated human polymorphonuclear leukocytes at 10 uM relative to control; assay type: functional
Homo sapiens [2] = species on record: Homo sapiens; test: Inhibition of A23187-induced 5HETE formation in human polymorphonuclear leukocytes at 100 to 1000 uM; assay type: functional, cell-based
[3] = Formation of PGE2 in A-23187-stimulated human polymorphonuclear leukocytes at 1000 uM relative to control; assay type: functional
[4] = Formation of PGE2 in A-23187-stimulated human polymorphonuclear leukocytes at 100 uM relative to control; assay type: functional
[5] = Cytotoxicity against human polymorphonuclear leukocytes assessed as occurrence of cell suspension or lactate dehydrogenase release at 1 to 1000 uM
[6] = Inhibition of A23187-induced 12-hydroxy-5,8,10-heptadecatrienoic acid formation in human polymorphonuclear leukocytes; assay type: functional, cell-based
Homo sapiens [7] = species on record: Homo sapiens; test: Inhibition of A23187-induced LTB4 formation in human polymorphonuclear leukocytes at 100 to 1000 uM; assay type: functional, cell-based
[8] = Formation of 15HETE in A-23187-stimulated human polymorphonuclear leukocytes at 1000 uM relative to control; assay type: functional
[9] = Inhibition of A23187-induced LTB4 formation in human polymorphonuclear leukocytes; assay type: functional, cell-based
Homo sapiens [10] = species on record: Homo sapiens; test: Enhancement of PGE2 formation in A-23187-stimulated human polymorphonuclear leukocytes at 100 uM; assay type: functional
[11] = Inhibition of A23187-induced 5HETE formation in human polymorphonuclear leukocytes; assay type: functional, cell-based
[12] = Formation of 12-hydroxy-5,8,10-heptadecatrienoic acid in A-23187-stimulated human polymorphonuclear leukocytes at 1000 uM relative to control; assay type: functional
Homo sapiens [13] = species on record: Homo sapiens; test: Enhancement of PGE2 formation in A-23187-stimulated human polymorphonuclear leukocytes at 100 to 1000 uM; assay type: functional
[14] = Formation of 15HETE in A-23187-stimulated human polymorphonuclear leukocytes at 100 uM relative to control; assay type: functional
Homo sapiens [15] = species on record: Homo sapiens; test: Inhibition of A23187-induced 12-hydroxy-5,8,10-heptadecatrienoic acid formation in human polymorphonuclear leukocytes at 1000 uM; assay type: functional, cell-based
Homo sapiens [16] = species on record: Homo sapiens; test: Inhibition of A23187-induced 5HETE formation in human polymorphonuclear leukocytes at 1 to 1000 uM; assay type: functional, cell-based
[17] = Formation of 15HETE in A-23187-stimulated human polymorphonuclear leukocytes at 10 uM relative to control; assay type: functional
Homo sapiens [18] = species on record: Homo sapiens; test: Enhancement of PGE2 formation in A-23187-stimulated human polymorphonuclear leukocytes at 10 to 100 uM; assay type: functional
Homo sapiens [19] = species on record: Homo sapiens; test: Enhancement of 15HETE formation in A-23187-stimulated human polymorphonuclear leukocytes at 10 to 100 uM; assay type: functional
Homo sapiens [20] = species on record: Homo sapiens; test: Inhibition of A23187-induced PGE2 formation in human polymorphonuclear leukocytes at 1 to 100 uM; assay type: functional, cell-based
Homo sapiens [21] = species on record: Homo sapiens; test: Inhibition of A23187-induced 12-hydroxy-5,8,10-heptadecatrienoic acid formation in human polymorphonuclear leukocytes at 1 to 100 uM; assay type: functional, cell-based
[22] = Inhibition of A23187-induced 15HETE formation in human polymorphonuclear leukocytes; assay type: functional, cell-based
Homo sapiens [23] = species on record: Homo sapiens; test: Inhibition of A23187-induced 15HETE formation in human polymorphonuclear leukocytes at 100 to 1000 uM; assay type: functional, cell-based
Homo sapiens [24] = species on record: Homo sapiens; test: Inhibition of A23187-induced 12-hydroxy-5,8,10-heptadecatrienoic acid formation in human polymorphonuclear leukocytes at 100 to 1000 uM; assay type: functional, cell-based

| SMILES | inhibition (Homo sapiens [2]) | Activity [3] | Activity [5] | IC50 [6] | inhibition (Homo sapiens [7]) | Activity [8] | IC50 ([9]; Homo sapiens, read-out: IC50) | Activity (Homo sapiens [10]) | IC50 ([11]; Homo sapiens, read-out: IC50) | Activity (Homo sapiens [13]) | Activity [14] | also measured |
| --- | --- | --- | --- | --- | --- | --- | --- | --- | --- | --- | --- | --- |
| O=C(/C=C/c1ccc(O)c(O)c1)O[C@H]1[C@H](O)C[C@](O)(C(=O)O)C[C@H]1OC(=O)/C=C/c1ccc(O)c(O)c1 | Active | 79.5% | Non-toxic | 740 µM | Active | 56.9% | 443 µM | Active | 601 µM |  |  | Activity [1]: 126%; Activity [4]: 155% |
| O=C(/C=C/c1ccc(O)c(O)c1)O[C@@H]1[C@H](O)C[C@@](O)(C(=O)O)C[C@H]1OC(=O)/C=C/c1ccc(O)c(O)c1 | Active |  | Non-toxic | 80 µM | Active |  | 92.5 µM | Active | 749 µM |  |  |  |
| O=C(/C=C/c1ccc(O)c(O)c1)OC(C(=O)O)C(O)C(=O)O (centres undefined) [CAFFEOYLTARTARIC ACID] | Active |  | Non-toxic |  | Active | 55% | 433 µM |  | 873 µM | Active |  | Activity [12]: 57.9% |
| O=C(O)/C=C/c1ccc(O)c(O)c1 [CAFFEIC ACID] |  |  | Non-toxic |  |  | 96.5% | 411 µM |  | 276 µM | Active | 153.7% | inhibition (Homo sapiens [15]): Active; inhibition (Homo sapiens [16]): Active; IC50 [9]: Dose-dependent effect; Activity [17]: 136.7%; Activity (Homo sapiens [18]): Active; Activity (Homo sapiens [19]): Active |
| COc1ccc2c(c1)c(CC(=O)O)c(C)n2C(=O)c1ccc(Cl)cc1 |  |  |  |  |  |  |  |  |  |  |  | inhibition (Homo sapiens [20]): Active; inhibition (Homo sapiens [21]): Active |
| O=C(/C=C/c1ccc(O)c(O)c1)O[C@H](Cc1ccc(O)c(O)c1)C(=O)O [ROSMARINIC ACID] |  | 48% | Non-toxic | 459 µM |  |  | 55.6 µM | Active | 214 µM |  |  | IC50 [22]: 455 µM; Activity [1]: 143.4%; inhibition (Homo sapiens [23]): Active; IC50 [9]: Dose-dependent effect; IC50 [11]: Dose-dependent effect; inhibition (Homo sapiens [24]): Active |
| O=C(/C=C/c1ccc(O)c(O)c1)O[C@@H]1C[C@](O)(C(=O)O)C[C@@H](OC(=O)/C=C/c2ccc(O)c(O)c2)[C@H]1O | Active | 97.5% | Non-toxic | 902 µM | Active | 50.9% | 85.9 µM | Active | 666 µM |  | 121.1% | Activity [4]: 160.8% |
| O=C(/C=C/c1ccc(O)c(O)c1)O[C@@H]1C[C@](O)(C(=O)O)C[C@@H](O)[C@H]1O [CHLOROGENIC ACID] |  |  | Non-toxic |  |  |  |  |  |  |  |  |  |
| O=C(O)CC(OC(=O)/C=C/c1ccc(O)c(O)c1)C(=O)O (centres undefined) [CAFFEOYLMALIC ACID] | Active |  | Non-toxic | 796 µM | Active | 114.8% | 548 µM |  | 918 µM | Active | 141.5% | Activity [17]: 106.3% |
